Measured values from US12644045B2, “Fluorescent compounds and application thereof” (The Hong Kong University of Science and Technology, priority 2020, dated 2026).

How the values were obtained:
[1] = Photophysical properties (PL emission, quantum yield, AIE); format: physicochemical; conditions: for aggregation induced emission (AIE): THF/water mixtures with increasing water fraction
Experimental: FIG. 16A Normalized absorption and PL spectra of TBSM in THF solution (c=10^−5 M) and FIG. 16B Normalized absorption and PL spectra of TBSM in solid state. λex=460 nm.
FIG. 17A PL spectra of TBSM in water/THF mixtures with different water fractions (fw); FIG. 17B Plots of relative PL intensity (αAIE=I/I0, I0=PL intensity in pure THF at 672 nm) vs fw. c=10 μM, λex=460 nm. Insert: the fluorescence pictures of the mixture with fw=50% and 95%.
FIG. 23A Absorption spectra of TBSMCN in THF (c=10^−5 mol/L) and as film. FIG. 23B PL spectra of TBSMCN in THF (c=10^−5 mol/L) and as film, λex=530 nm.
FIG. 24A PL spectra of TBSMCN in H2O/THF mixtures with different water fractions (fw). Concentration: 10^−5 M; λex=530 nm. FIG. 24B Plots of relative emission intensity (I/I0) versus the composition of the mixture, where I0=PL intensity in pure THF at λem=810 nm.
UV spectrum FIG. 27A and PL spectrum FIG. 27B of TBSMPy in film state. λex=560 nm.
UV spectrum FIG. 28A and PL spectrum FIG. 28B of TBSMDPy in film state. λex=580 nm.
The photophysical properties of TBSM were first examined. […] TBSM gave a much brighter red emission in toluene solution with an emission wavelength at 605 nm and a QY of 67.9%. While in THF solution, the emission wavelength red-shifted to 669 nm with a QY of 4.1%.
We then investigated the luminescence behavior of TBSM in the mixture of THF and water to see whether it is AIE-active. When adding water into the THF solution, the photoluminescence (PL) intensity decreased with the water fraction (fw) in a range of 0-50%. In this case, the TICT effect dominated the photophysical process and reduced the emission intensity. When the fw exceeded 50%, the TBSM molecule began to aggregate and made the local microenvironment less polar. Therefore, the conformation rigidification became dominated and reversed the PL intensity from weak to strong.
To gain an insight to the details of the photophyscial properties of TBSM, we analyzed its crystal structure. TBSM molecules also show bright emission in the solid state since the locked nonplanar conformation can avoid the strong intermolecular π-π interactions. Indeed, no strong intermolecular π-π stacking has been observed in the crystal packing of TBSM. However, multiple intermolecular non-covalent interactions such as S . . . π, C≡N . . . π, C—H . . . N, C—H . . . S, and intermolecular hydrogen bonding interactions were observed which helps lock the solid-state molecular motion.
The photophysical properties of TBSMCN were investigated. […] In the film, the ICT peak further red shifted to 580 nm. […] TBSMCN was also AIE-active, showing increased PL emission intensity in the mixture of THF and water as the water fraction increased (FIG. 24A and FIG. 24B).
The photophysical properties of TBSMPy and TBSMDPy were studied. In the film state, they had absorption peaks around 400 nm and 580 nm. The emission peaks were at 750 nm with high QY of 16.3% and 25.0% for TBSMPy and TBSMDPy, respectively (FIGS. 27 and 28).

[2] = test system: A549 and Hela cells; experiment: Live cell staining of A549 and Hela cells; format: cell-based; conditions: 2 μM, 1 h
[3] = test system: LDs of liver tissues of mice; experiment: Ex vivo co-staining with BODIPY in high-fat feeding mice liver tissue; conditions: TBSM 2 μM 1 h, BODIPY 2 μM 1 h
Experimental: FIG. 20 Co-stained ex vivo confocal one-photon (λex=488 nm) images TBSM (2 μM, 1 h) and BODIPY (2 μM, 1 h) in high-fat feeding mice liver tissue. TBSM: λex=488 nm, λem=550-650 nm; BODIPY: μex=488 nm, λem=490-535 nm. Scale bar: 10 μm. The number on the picture is colocalization coefficient.

[4] = test system: LDs in the yolk sac of zebrafish embryos; experiment: In vivo zebrafish embryo imaging; conditions: 3-day-old zebrafish embryos, stained for 30 min
Experimental: FIG. 22 In vivo zebrafish embryo imaging stained with TBSM (1 μM, […]), λex=488 nm, λem=550-650 nm. The right is the enlarged part of white frame in the left.
Yolk sac as a neutral lipid and polar phospholipids storage organ provides energy for the upgrowth of zebrafish. Intense red fluorescence signals originating from the yolk sac in 3-day-old zebrafish embryos were observed after stained with TBSM for 30 min (FIG. 22).

[5] = test system: lipid droplets (LDs) in Hela cells; experiment: Co-localization with BODIPY 493/503 in live Hela cells (confocal imaging); format: cell-based; conditions: 2 μM TBSM 1 h, co-stained with BODIPY 493/503
Experimental: FIG. 19 Confocal fluorescent images of live HeLa cell stained with 2 μM TBSM (1 h) and 1 μg/mL BODIPY (1 h). TBSM: λex=488 nm, λem=550-650 nm; BODIPY: λex=488 nm, λem=490-535 nm. Scale bar=20 μm. The number on the figure is colocalization coefficient.
To confirm the specificity of the TBSM for LDs imaging, the co-localization experiments were then carried out by incubating Hela cells with TBSM and BODIPY 493/503, a commercial dye for LDs.

With `N#CC(C#N)=C1Sc2c(c(-c3ccc(N(c4ccccc4)c4ccccc4)cc3)c3nsnc3c2C#N)S1` [TBSMCN] the “aggregation induced emission (AIE)” value [1] was “AIE-active” and the QY ([1]; film state) was “about 10%”.

With `N#CC(C#N)=C1Sc2c(F)c(-c3ccc(N(c4ccccc4)c4ccccc4)cc3)c3nsnc3c2S1` [TBSM] the QY ([1]; THF solution) was 4.1%, the emission wavelength ([1]; THF solution) was 669 nm and the “aggregation induced emission (AIE)” value [1] was “exhibits typical AIE property”. The emission wavelength ([1]; solid) was 670 nm, the quantum yield ([1]; solid) was 13% and the QY ([1]; toluene solution) was 67.9%. For the same compound, the emission wavelength ([1]; toluene solution) was 605 nm, the “permeability for living cells” value [2] was “fast permeability” and the co-localization coefficient [3] was 0.97. For the same compound, the “specificity toward LDs in vivo” value [4] was “highly specific toward LDs” and the co-localization coefficient [5] was 0.91.

`N#CC(C#N)=C1Sc2c(c(-c3ccc(N(c4ccccc4)c4ccccc4)cc3)c3nsnc3c2C#Cc2ccncc2)S1` [TBSMPy] showed a QY ([1]; film state) of 16.3% and an emission peak ([1]; film state) of 750 nm.

Work on `N#CC(C#N)=C1Sc2c(c(-c3ccc(N(c4ccccc4)c4ccccc4)cc3)c3nsnc3c2C#Cc2cc(C#Cc3cccnc3)cc(C#Cc3cccnc3)c2)S1` [TBSMDPy] yielded a QY ([1]; film state) of 25.0% and an emission peak ([1]; film state) of 750 nm.
